What was measured:
[1] = system: antigen-induced airway eosinophilia; experiment: Antigen-induced airway eosinophilia (rat); format: in vivo; details: test described in patent reference 1
From the text: (§1) 4,6-Diemthyl-4′-[3,5-bis(trifluoromethyl)-1H-pyrazol-1-yl]nicotinanilide is excellent in terms of the CRACC inhibitory activity, the inhibition selectivity over VOCC, and the activity of suppressing IL-2 production. […] Therefore, a pharmaceutical product containing the compound is useful as an agent for preventing or treating allergic, inflammatory or autoimmune diseases in which CRACC and IL-2 participates. Herein, the allergic, inflammatory or autoimmune diseases include, for example, bronchial asthma, psoriasis, atopic diseases including atopic dermatitis, inflammatory bowel diseases including Crohn disease, digestive ulcer, nephritis, hepatitis, pancreatitis, collagenosis, rheumatoid arthritis, osteoarthritis, and rejection on transplantation. The usefulness on these diseases can be confirmed at the in vitro tests of the CRACC inhibitory activity and the activity of suppressing IL-2 production as described in the patent reference 1 and at various tests using, for example, antigen-induced airway eosinophilia model as a typical disease model of bronchial asthma, and murine collagen-induced arthritis model. 4,6-Dimethyl-4′-[3,5-bis (trifluoromethyl)-1H-pyrazol-1-yl]nicotinanilide may be produced by the method described in the patent reference 1.

IL-2 production = experiment: Activity of suppressing IL-2 production; format: cell-based
From the text: as §1

[2] = system: collagen-induced arthritis; experiment: Murine collagen-induced arthritis model; format: in vivo; details: test described in patent reference 1
From the text: as §1

[3] = system: voltage-operated Ca2+ channel (VOCC); experiment: Inhibition selectivity for CRACC over VOCC; format: cell-based
From the text: A pyrazole derivative having a high inhibition selectivity for CRACC over voltage-operated Ca^2+ channel (abbreviated as VOCC hereinafter) involved in intracellular calcium regulation of excitatory cells such as smooth muscle cells and nerve cells and having an inhibitory activity against IL-2 production has been reported (for example, patent reference 1).
4,6-Diemthyl-4′-[3,5-bis(trifluoromethyl)-1H-pyrazol-1-yl]nicotinanilide is excellent in terms of the CRACC inhibitory activity, the inhibition selectivity over VOCC, and the activity of suppressing IL-2 production. […] Therefore, a pharmaceutical product containing the compound is useful as an agent for preventing or treating allergic, inflammatory or autoimmune diseases in which CRACC and IL-2 participates. Herein, the allergic, inflammatory or autoimmune diseases include, for example, bronchial asthma, psoriasis, atopic diseases including atopic dermatitis, inflammatory bowel diseases including Crohn disease, digestive ulcer, nephritis, hepatitis, pancreatitis, collagenosis, rheumatoid arthritis, osteoarthritis, and rejection on transplantation. […]

[4] = system: TNCB-induced Contact Hypersensitivity; experiment: Suppression of TNCB-induced Contact Hypersensitivity; format: in vivo; details: test described in patent reference 1
From the text: as §1

[5] = system: Ca2+ release-activated Ca2+ channel (CRACC); experiment: CRACC inhibitory activity (in vitro test as described in patent reference 1); format: cell-based
From the text: as §1

[6] = Stability test of the crystals (assay value by HPLC, internal standard method); format: physicochemical; details: for Stability test: assay value by HPLC (internal standard method, peak area): 40° C. under light-resistant; for Stability of the crystal: at 5 to 60° C. for at least three months
Protocol: Because both the α type and β type crystals are stable at 5 to 60° C. for at least three months and can be highly purified by recrystallization, these crystals may be used as raw materials for producing pharmaceutical products. Particularly, these crystals are preferable as raw materials for producing solid pharmaceutical preparations.
(The values express the assay values determined by an internal standard method on the basis of peak area obtained by HPLC)

Cc1cc(C)c(C(=O)Nc2ccc(-n3nc(C(F)(F)F)cc3C(F)(F)F)cc2)cn1 [4,6-dimethyl-4′-[3,5-bis(trifluoromethyl)-1H-pyrazol-1-yl]nicotinanilide]
activity of suppressing of antigen-induced airway eosinophilia [1]: very good activities
activity of suppressing IL-2 production (IL-2 production): excellent
activity of suppressing the arthritis in murine collagen-induced arthritis model [2]: very good activities
inhibition selectivity over VOCC [3]: excellent
effect on the suppression of TNCB-induced Contact Hypersensitivity [4]: very good activities
CRACC inhibitory activity [5]: excellent

Cc1cc(C)c(C(=O)Nc2ccc(-n3nc(C(F)(F)F)cc3C(F)(F)F)cc2)cn1 [α type crystal, 4,6-dimethyl-4′-[3,5-bis(trifluoromethyl)-1H-pyrazol-1-yl]nicotinanilide]
Stability test: assay value by HPLC (internal standard method, peak area) ([6]; After 1 month): 100.7%
Stability test: assay value by HPLC (internal standard method, peak area) ([6]; After 3 months): 99.2%
Stability of the crystal [6]: stable

Cc1cc(C)c(C(=O)Nc2ccc(-n3nc(C(F)(F)F)cc3C(F)(F)F)cc2)cn1 [β type crystal, 4,6-dimethyl-4′-[3,5-bis(trifluoromethyl)-1H-pyrazol-1-yl]nicotinanilide]
Stability test: assay value by HPLC (internal standard method, peak area) ([6]; After 1 month): 99.7%
Stability test: assay value by HPLC (internal standard method, peak area) ([6]; After 3 months): 100.7%
Stability of the crystal [6]: stable

— US7309710B2, “Crystals” (Astellas Pharma Inc., priority 2002, dated 2007)
